Literature values as cited in US20040023948A1, “Fast-dispersing dosage form containing 5-HT1 agonists” (priority 1997, published 2004).

Conditions: Vogel conflict test in rats; Gammans et al. 1986

Structure (SMILES): c1cnc(N2CCNCC2)nc1 [Example 1-PP, 1-pyrimidinylpiperazine]
- activity relative to unchanged buspirone: ≤ 20%
